Source: patent US10597366B2, “Aryl ethers and uses thereof” (Peloton Therapeutics, Inc., priority 2013, dated 2020)
pEC50: −log10 of the molar value. Read-outs that look alike come from different tables or passages of the source.

System: 786-O-Hif-Luc cells (luciferase gene driven by multiple HIF responsive elements)
Experiment: Luciferase Assay
Assay type: cell-based
Conditions: 24 h, read-out: Mean Luciferease EC50
Experimental: A pool of infected cells were then selected against 2 μg/mL of puromycin (P8833, Sigma) for 10 days followed by limited dilution to select single clones.
Each concentration was tested in triplicate. After about 24 hours, luciferase activity was determined using ONE-Glo Luciferase Assay Reagent (E6110, Promega) following the manufacturer's recommended procedure. EC50 were calculated by using Dotmatics software.

[1] = 786-O-Hif-Luc cells, about 24 hours

Q: With N#Cc1cccc(Oc2ccc(S(=O)(=O)C(F)F)c(C#N)c2Cl)c1 [Compound 40, 2-Chloro-3-(3-cyanophenoxy)-6-((difluoromethyl)sulfonyl)benzonitrile] as the molecule, how does the pEC50 [1] read?
A: The pEC50 was 5.92.

Q: N#Cc1cncc(Oc2ccc(S(=N)(=O)C(F)(F)F)c3c2CC(F)(F)[C@H]3O)c1 (stereo partly drawn) [Compound 314, 5-(((1S)-2,2-difluoro-1-hydroxy-7-(S-(trifluoromethyl)sulfonimidoyl)-2,3-dihydro-1H-inden-4-yl)oxy)nicotinonitrile] was tested. Which pEC50 [1] did it give?
A: Its pEC50 is 6.82.

Q: O=S(=O)(c1ccc(Oc2cc(Cl)c[n+]([O-])c2)c2c1[C@H](O)C(F)(F)C2)C(F)(F)F [Compound 260, (S)-3-Chloro-5-((2,2-difluoro-1-hydroxy-7-((trifluoromethyl)sulfonyl)-2,3-dihydro-1H-inden-4-yl)oxy)pyridine 1-oxide] was tested. Which pEC50 [1] did it give?
A: Its pEC50 is 6.77.

Q: With [2H][C@]1(O)c2c(S(C)(=O)=O)ccc(Oc3cc(F)cc(C#N)c3)c2CC1(F)F [Compound 247, (S)-3-((2,2-Difluoro-1-hydroxy-7-(methylsulfonyl)-2,3-dihydro-1H-inden-4-yl-1-d)oxy)-5-fluorobenzonitrile] as the molecule, how does the pEC50 read?
A: Its pEC50 is 7.62.

Q: With N#CN=S(=O)(CF)c1ccc(Oc2cc(F)cc(C#N)c2)c2c1[C@H](O)C(F)(F)C2 (single isomer, unassigned) [Compound 285] as the molecule, how does the pEC50 [1] read?
A: Its pEC50 is 7.00.

Q: CS(=O)(=O)c1ccc(Oc2cncc(C#N)c2)c2c1[C@H](O)[C@H](F)C2 [Compound 313, 5-(((1S,2R)-2-fluoro-1-hydroxy-7-(methylsulfonyl)-2,3-dihydro-1H-inden-4-yl)oxy)nicotinonitrile] was tested. Which pEC50 [1] did it give?
A: Its pEC50 is 5.96.

Q: How did the pEC50 [1] turn out when N#Cc1cc(F)cc(Oc2ccc(S(N)(=O)=O)c3c2C[C@@H](F)[C@H]3O)c1 [Compound 334, (2R,3S)-7-(3-cyano-5-fluoro-phenoxy)-2-fluoro-3-hydroxy-indane-4-sulfonamide] was run?
A: The pEC50 was 6.66.

Q: CCOC(=O)/C=C/c1c(S(=O)(=O)C(F)(F)F)ccc(Oc2cc(F)cc(C#N)c2)c1C [Compound 148, Ethyl (E)-3-(3-(3-cyano-5-fluorophenoxy)-2-methyl-6-((trifluoromethyl)sulfonyl)phenyl)acrylate] was tested. Which pEC50 [1] did it give?
A: The pEC50 was 5.25.

Q: With CS(=O)(=O)c1ccc(Oc2cc(F)cc(C#N)c2)c2c1[C@@H](O)C(F)(F)C2 [Compound 226, (R)-3-((2,2-Difluoro-1-hydroxy-7-(methylsulfonyl)-2,3-dihydro-1H-inden-4-yl)oxy)-5-fluorobenzonitrile] as the molecule, how does the pEC50 read?
A: Its pEC50 is 5.46.

Q: With O=S(=O)(c1ccc(Oc2cccc3[nH]ncc23)c2c1[C@H](O)C(F)(F)C2)C(F)(F)F [Compound 263, (S)-4-((1H-Indazol-4-yl)oxy)-2,2-difluoro-7-((trifluoromethyl)sulfonyl)-2,3-dihydro-1H-inden-1-ol] as the molecule, how does the pEC50 [1] read?
A: Its pEC50 is 6.11.

Q: O=S(=O)(c1ccc(Oc2cncc(Cl)c2)c2c1[C@H](O)C(F)(F)C2)C(F)F [Compound 25, (S)-4-((5-chloropyridin-3-yl)oxy)-7-((difluoromethyl)sulfonyl)-2,2-difluoro-2,3-dihydro-1H-inden-1-ol] was tested. Which pEC50 [1] did it give?
A: Its pEC50 is 7.74.

Q: O=C1CCc2c(Oc3cc(F)cc(Cl)c3)ccc(S(=O)(=O)C(F)F)c21 [Compound 18, 4-(3-chloro-5-fluorophenoxy)-7-((difluoromethyl)sulfonyl)-2,3-dihydro-1H-inden-1-one] was tested. Which pEC50 [1] did it give?
A: The pEC50 was 5.57.

Q: How did the pEC50 [1] turn out when O=S(=O)(c1ccc(Oc2cc(F)cc(Cl)c2)c(Cl)c1CNCCF)C(F)(F)F [Compound 114, N-(2-Chloro-3-(3-chloro-5-fluorophenoxy)-6-((trifluoromethyl)sulfonyl)benzyl)-2-fluoroethan-1-amine] was run?
A: Its pEC50 is 5.05.

Q: Cc1cc(S(=O)(=O)C(F)F)ccc1Oc1cc(F)cc(Cl)c1 [Compound 135, 1-(3-Chloro-5-fluoro-phenoxy)-4-(difluoromethylsulfonyl)-2-methyl-benzene] was tested. Which pEC50 [1] did it give?
A: Its pEC50 is 5.27.

Q: How did the pEC50 [1] turn out when O=S(=O)(c1ccc(Oc2ccc(F)c3[nH]ncc23)c2c1[C@H](O)C(F)(F)C2)C(F)(F)F [Compound 266, (S)-2,2-difluoro-4-((7-fluoro-1H-indazol-4-yl)oxy)-7-((trifluoromethyl)sulfonyl)-2,3-dihydro-1H-inden-1-ol] was run?
A: The pEC50 was 7.52.

Q: O=S(=O)(c1ccc(Oc2ccc(F)cc2)c2c1C(O)CC2)C(F)(F)F (stereo not shown) [Compound 212, 4-(4-Fluorophenoxy)-7-((trifluoromethyl)sulfonyl)-2,3-dihydro-1H-inden-1-ol] was tested. Which pEC50 [1] did it give?
A: The pEC50 was 5.80.

Q: With CC(=O)c1c(S(=O)(=O)C(F)(F)F)ccc(Oc2cc(F)cc(Cl)c2)c1Br [Compound 104, 1-(2-Bromo-3-(3-chloro-5-fluorophenoxy)-6-((trifluoromethyl)sulfonyl)phenyl)ethan-1-one] as the molecule, how does the pEC50 [1] read?
A: The pEC50 was 4.92.

Q: How did the pEC50 [1] turn out when CS(=N)(=O)c1ccc(Oc2cc(F)cc(F)c2)c2c1[C@H](O)C(F)(F)C2 (stereo partly drawn) [Compound 192, ((S)-7-(3,5-Difluorophenoxy)-2,2-difluoro-3-hydroxy-2,3-dihydro-1H-inden-4-yl)(imino)(methyl)-λ^6-sulfanone] was run?
A: Its pEC50 is 6.55.

Q: O=S(=O)(c1ccc(Oc2ccc(F)c(Cl)c2)c2c1C(O)CC2)C(F)(F)F (stereo not shown) [Compound 218, 4-(3-Chloro-4-fluorophenoxy)-7-((trifluoromethyl)sulfonyl)-2,3-dihydro-1H-inden-1-ol] was tested. Which pEC50 [1] did it give?
A: Its pEC50 is 5.46.

Q: With CS(=O)(=O)c1ccc(Oc2cc(F)cc(C#N)c2)c2c1[C@H](O)[C@H](F)[C@@H]2F [Compound 289, 3-[(1S,2S,3R)-2,3-difluoro-1-hydroxy-7-methylsulfonyl-indan-4-yl]oxy-5-fluoro-benzonitrile] as the molecule, how does the pEC50 read?
A: Its pEC50 is 8.38.

Q: CC(O)c1c(S(=O)(=O)C(F)(F)F)ccc(Oc2cc(F)cc(Cl)c2)c1Br (stereo not shown) [Compound 103, 1-(2-Bromo-3-(3-chloro-5-fluorophenoxy)-6-((trifluoromethyl)sulfonyl)phenyl)ethan-1-ol] was tested. Which pEC50 [1] did it give?
A: Its pEC50 is 5.48.

Q: How did the pEC50 [1] turn out when O=S(=O)(c1ccc(Oc2cncc(F)c2)c2c1[C@H](O)CC2)C(F)F [Compound 5, (R)-7-((difluoromethyl)sulfonyl)-4-((5-fluoropyridin-3-yl)oxy)-2,3-dihydro-1H-inden-1-ol] was run?
A: Its pEC50 is 6.38.

Q: How did the pEC50 [1] turn out when CS(=O)(=O)c1ccc(Oc2cc(F)cc(C#N)c2)c2c1[C@H](O)C(F)(F)[C@@H]2O [Compound 312, 3-[(1S,3R)-2,2-difluoro-1,3-dihydroxy-7-methylsulfonyl-indan-4-yl]oxy-5-fluoro-benzonitrile] was run?
A: Its pEC50 is 6.20.

Q: With O=S(=O)(c1ccc(Oc2ccc(F)c3[nH]ncc23)c2c1C(O)C(F)(F)C2)C(F)(F)F (stereo not shown) [Compound 241, 2,2-Difluoro-4-((7-fluoro-1H-indazol-4-yl)oxy)-7-((trifluoromethyl)sulfonyl)-2,3-dihydro-1H-inden-1-ol] as the molecule, how does the pEC50 [1] read?
A: Its pEC50 is 6.85.

Q: With O=S(=O)(CF)c1ccc(Oc2cncc(Cl)c2)c2c1[C@H](O)C(F)(F)C2 [Compound 187, (S)-4-((5-Chloropyridin-3-yl)oxy)-2,2-difluoro-7-((fluoromethyl)sulfonyl)-2,3-dihydro-1H-inden-1-ol] as the molecule, how does the pEC50 [1] read?
A: The pEC50 was 7.01.

Q: With C[C@@H]1Cc2c(Oc3cc(F)cc(C#N)c3)ccc(S(C)(=O)=O)c2[C@@H]1O [Compound 301, 3-fluoro-5-(((1R,2R)-1-hydroxy-2-methyl-7-(methylsulfonyl)-2,3-dihydro-1H-inden-4-yl)oxy)benzonitrile] as the molecule, how does the pEC50 [1] read?
A: Its pEC50 is 5.68.

Q: With CS(=O)(=O)c1ccc(Oc2cc(F)cc(C#N)c2)c(C(F)F)c1C#N [Compound 94, 3-(3-Cyano-5-fluorophenoxy)-2-(difluoromethyl)-6-(methylsulfonyl)benzonitrile] as the molecule, how does the pEC50 [1] read?
A: The pEC50 was 6.12.

Q: With O=S(=O)(c1ccc(Oc2cc(F)cc(Cl)c2)c(Br)c1C=NO)C(F)(F)F [Compound 107, 2-Bromo-3-(3-chloro-5-fluorophenoxy)-6-((trifluoromethyl)sulfonyl)benzaldehyde oxime] as the molecule, how does the pEC50 [1] read?
A: Its pEC50 is 6.28.

Q: How did the pEC50 [1] turn out when N=S(=O)(c1ccc(Oc2cc(F)cc(Cl)c2)c(Br)c1Cl)C(F)(F)F (stereo not shown) [Compound 75, (3-bromo-2-chloro-4-(3-chloro-5-fluorophenoxy)phenyl)(imino)(trifluoromethyl)-λ^6-sulfanone] was run?
A: The pEC50 was 5.06.

Q: CS(=O)(=O)c1ccc(Oc2cc(F)cc(C#N)c2)c2c1[C@H](O)[C@H](F)[C@H]2F [Compound 294, 3-[(1S,2S,3S)-2,3-difluoro-1-hydroxy-7-methylsulfonyl-indan-4-yl]oxy-5-fluoro-benzonitrile] was tested. Which pEC50 [1] did it give?
A: Its pEC50 is 6.00.

Q: How did the pEC50 [1] turn out when N#Cc1cc(F)cc(Oc2ccc(S(=O)(=O)C(F)F)c3c2CCC3F)c1 (stereo not shown) [Compound 202, 3-((7-((Difluoromethyl)sulfonyl)-1-fluoro-2,3-dihydro-1H-inden-4-yl)oxy)-5-fluorobenzonitrile] was run?
A: Its pEC50 is 5.44.

Q: With N#Cc1c(S(=O)(=O)C(F)(F)F)ccc(Oc2cc(F)cc(Cl)c2)c1Cl [Compound 111, 2-Chloro-3-(3-chloro-5-fluorophenoxy)-6-((trifluoromethyl)sulfonyl)benzonitrile] as the molecule, how does the pEC50 [1] read?
A: The pEC50 was 5.86.

Q: With Cc1c(Oc2cc(F)cc(C#N)c2)ccc(S(=O)(=O)C(F)(F)F)c1C=O [Compound 145, 3-Fluoro-5-[3-formyl-2-methyl-4-(trifluoromethylsulfonyl)phenoxy]benzonitrile] as the molecule, how does the pEC50 [1] read?
A: Its pEC50 is 6.37.

Q: CNS(=O)(=O)c1ccc(Oc2cc(F)cc(F)c2)c2c1[C@H](O)C(F)(F)C2 [Compound 251, (S)-7-(3,5-Difluorophenoxy)-2,2-difluoro-3-hydroxy-N-methyl-2,3-dihydro-1H-indene-4-sulfonamide] was tested. Which pEC50 did it give?
A: Its pEC50 is 7.28.

Q: With N#Cc1cc(F)cc(Oc2ccc(S(=O)(=O)C(F)(F)F)cc2Br)c1 [Compound 118, 3-(2-Bromo-4-((trifluoromethyl)sulfonyl)phenoxy)-5-fluorobenzonitrile] as the molecule, how does the pEC50 [1] read?
A: The pEC50 was 5.82.

Q: N#Cc1cc(F)cc(Oc2ccc(S(N)(=O)=O)c3c2[C@@H](F)C(F)(F)[C@H]3O)c1 [Compound 338, (1R,3S)-7-(3-cyano-5-fluoro-phenoxy)-1,2,2-trifluoro-3-hydroxy-indane-4-sulfonamide] was tested. Which pEC50 did it give?
A: Its pEC50 is 8.21.

Q: CS(=O)(=O)c1ccc(Oc2cc(F)cc(F)c2)c(C(F)F)c1C#N [Compound 93, 2-(Difluoromethyl)-3-(3,5-difluorophenoxy)-6-(methylsulfonyl)benzonitrile] was tested. Which pEC50 [1] did it give?
A: Its pEC50 is 6.17.
